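Briefly, cells in 96-well plates were exposed to five compound concentrations for 48 h, and endpoints were estimated by linear interpolation. GI50 = concentration required for 50% inhibition of growth.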 Active and inactive are the calls of the source. Rule as the data show it: active = GI50 up to about 1.1 µM and inactive = higher.
Legend:
Test in all cases: inhibition of tumour cell growth, NCI panel, 48 h
[1] = system: MDA-MB-231
[2] = system: IGROV-1
[3] = system: SK-MEL-2
[4] = system: TK-10
[5] = system: COLO 205
[6] = system: NCI-H226
[7] = system: MOLT-4
[8] = system: KM12
[9] = system: CCRF-CEM
[10] = system: UACC-257
[11] = system: NCI/ADR-RES
[12] = system: M14
[13] = system: SF-539
[14] = system: SF-268
[15] = system: U-251
[16] = system: SNB-75
[17] = system: OVCAR-5
[18] = system: SW-620

Structure (SMILES) | GI50 [1] | GI50 [2] | GI50 [3] | GI50 [4] | GI50 [5] | GI50 [6] | GI50 [7] | GI50 [8] | GI50 [9] | GI50 [10] | GI50 [11] | GI50 [12] | GI50 [13] | GI50 [14] | GI50 [15] | GI50 [16] | GI50 [17] | GI50 [18]
O=C1/C(=C/c2ccc([N+](=O)[O-])cc2)CCCc2ccccc21 | > 100 µM (inactive) | > 100 µM (inactive) | > 100 µM (inactive) | > 100 µM (inactive) | > 100 µM (inactive) | > 100 µM (inactive) | > 100 µM (inactive) | > 100 µM (inactive) | > 100 µM (inactive) | > 100 µM (inactive) | > 100 µM (inactive) | > 100 µM (inactive) | 76.2 µM (inactive) | 30.4 µM (inactive) | > 100 µM (inactive) | 83.4 µM (inactive) | > 100 µM (inactive) | > 100 µM (inactive)
Cc1c(C)c2c(c(N)c1C#N)C(=O)N(Cc1ccc(S(N)(=O)=O)cc1)C2=O | 19.7 µM (inactive) | > 38.4 µM (inactive) | > 50.1 µM (inactive) | 22.4 µM (inactive) | > 100 µM (inactive) | > 30.5 µM (inactive) | > 100 µM (inactive) | > 100 µM (inactive) | > 100 µM (inactive) | > 100 µM (inactive) | > 57.9 µM (inactive) | 25.9 µM (inactive) | > 34.4 µM (inactive) | 16.5 µM (inactive) | 7.18 µM (inactive) | > 35.9 µM (inactive) | 24.3 µM (inactive) | > 100 µM (inactive)
N#CC1C=Cc2ccccc2N1C(=O)Oc1ccccc1 (stereo not given) | 68.2 µM (inactive) | 68.2 µM (inactive) | 23.1 µM (inactive) | 44.8 µM (inactive) | 58.7 µM (inactive) | 42.5 µM (inactive) | 28.2 µM (inactive) | 37.2 µM (inactive) | 19.9 µM (inactive) | 76.9 µM (inactive) | 55.5 µM (inactive) | 46.7 µM (inactive) | 69.8 µM (inactive) | 55.1 µM (inactive) | 44.1 µM (inactive) | 93.5 µM (inactive) | > 100 µM (inactive) | 36.2 µM (inactive)
COc1ccc2c(CCNS(=O)(=O)c3ccccc3)c(C(C)=O)[nH]c2c1 | > 85.5 µM (inactive) | 34.4 µM (inactive) | > 100 µM (inactive) | > 100 µM (inactive) | > 73.6 µM (inactive) | > 100 µM (inactive) | 48.8 µM (inactive) | 54.2 µM (inactive) | > 65.2 µM (inactive) | > 32.4 µM (inactive) | 63.2 µM (inactive) | > 64.4 µM (inactive) | 82.4 µM (inactive) | 52.1 µM (inactive) | > 74.3 µM (inactive) | 52.8 µM (inactive) | > 88.9 µM (inactive) | > 100 µM (inactive)
O=C1c2[nH]c3ccccc3c2CCN2CCCCC12 (stereo not given) | 19.2 µM (inactive) | 20.2 µM (inactive) | 18.5 µM (inactive) | 27 µM (inactive) | 18.7 µM (inactive) | 27.8 µM (inactive) | 17.3 µM (inactive) | 17.7 µM (inactive) | 22.6 µM (inactive) | 17.7 µM (inactive) | 22.8 µM (inactive) | 17.9 µM (inactive) | 21.1 µM (inactive) | 33.8 µM (inactive) | 18.8 µM (inactive) | 28.5 µM (inactive) | 21.6 µM (inactive) | 26.1 µM (inactive)
COc1ccc2c(c1)C(N)=C(c1ccccc1)C2=O | 51.3 µM (inactive) | 63.5 µM (inactive) | > 100 µM (inactive) | > 100 µM (inactive) | > 100 µM (inactive) | 87.9 µM (inactive) | 58.5 µM (inactive) | 36.6 µM (inactive) | > 100 µM (inactive) | > 100 µM (inactive) | 36.6 µM (inactive) | > 100 µM (inactive) | > 100 µM (inactive) | 27 µM (inactive) | 94.4 µM (inactive) | 12.6 µM (inactive) | > 100 µM (inactive) | > 100 µM (inactive)
CCOC(=O)/C=C\C(C#N)(C#N)/N=C/c1ccsc1 | 16.3 µM (inactive) | 14.5 µM (inactive) | 17.7 µM (inactive) | 2.1 µM (inactive) | 1.9 µM (inactive) | 14.8 µM (inactive) | 1.21 µM (inactive) | 19.5 µM (inactive) | 0.207 µM (active) | 6.81 µM (inactive) | 3.84 µM (inactive) | 3.08 µM (inactive) | 6.55 µM (inactive) | 6.75 µM (inactive) | 17.1 µM (inactive) | 13 µM (inactive) | 18.2 µM (inactive) | 1.62 µM (inactive)
CCCCCCCCCCCCCCCCNc1ccc2c(c1)OCCOCCOCCOCCO2 | 2.91 µM (inactive) | 2.91 µM (inactive) | 2.25 µM (inactive) | 11.7 µM (inactive) | 1.75 µM (inactive) | 1.77 µM (inactive) | 2.5 µM (inactive) | 2.06 µM (inactive) | 2.19 µM (inactive) | 2.56 µM (inactive) | 2.37 µM (inactive) | 3.79 µM (inactive) | 2.32 µM (inactive) | 3.76 µM (inactive) | 2.49 µM (inactive) | 3.92 µM (inactive) | 3.61 µM (inactive) | 3.37 µM (inactive)
NCc1nnn(Cc2ccccc2)c1N | > 100 µM (inactive) | > 100 µM (inactive) | > 100 µM (inactive) | > 100 µM (inactive) | > 100 µM (inactive) | > 100 µM (inactive) | > 100 µM (inactive) | > 100 µM (inactive) | > 100 µM (inactive) | > 100 µM (inactive) | > 100 µM (inactive) | > 100 µM (inactive) | > 100 µM (inactive) | > 100 µM (inactive) | > 100 µM (inactive) | > 100 µM (inactive) | > 100 µM (inactive) | > 100 µM (inactive)
CSc1nc(-c2cc3c(c(SC)n2)CCCCC3)cc2c1CCCCC2 | > 100 µM (inactive) | 22.8 µM (inactive) | > 100 µM (inactive) | > 100 µM (inactive) | > 100 µM (inactive) | > 100 µM (inactive) | > 100 µM (inactive) | > 100 µM (inactive) | > 100 µM (inactive) | > 100 µM (inactive) | > 100 µM (inactive) | > 100 µM (inactive) | > 100 µM (inactive) | 50.7 µM (inactive) | > 100 µM (inactive) | 34.3 µM (inactive) | > 100 µM (inactive) | > 100 µM (inactive)
COc1cc(C(=O)OC2CC34CCNC35CC(OC5(OC)C2O)c2cc3c(cc24)OCO3)ccc1O (stereo not given) | > 100 µM (inactive) | > 100 µM (inactive) | > 100 µM (inactive) | > 100 µM (inactive) | > 100 µM (inactive) | > 100 µM (inactive) | > 100 µM (inactive) | > 100 µM (inactive) | > 100 µM (inactive) | > 100 µM (inactive) | > 100 µM (inactive) | > 100 µM (inactive) | > 100 µM (inactive) | > 100 µM (inactive) | > 100 µM (inactive) | 46.8 µM (inactive) | > 100 µM (inactive) | > 100 µM (inactive)
CC(C)OP(=O)(OC(C)C)/C(C#N)=C/c1ccco1 | > 100 µM (inactive) | > 100 µM (inactive) | > 100 µM (inactive) | > 100 µM (inactive) | > 100 µM (inactive) | > 100 µM (inactive) | > 100 µM (inactive) | > 100 µM (inactive) | > 100 µM (inactive) | > 100 µM (inactive) | > 100 µM (inactive) | > 100 µM (inactive) | > 100 µM (inactive) | > 100 µM (inactive) | > 100 µM (inactive) | > 100 µM (inactive) | > 100 µM (inactive) | > 100 µM (inactive)
CC(C)N(C(C)C)S(=O)(=O)CC12CCC(C/C1=N\O)C2 (stereo not given) | > 100 µM (inactive) | > 100 µM (inactive) | > 100 µM (inactive) | > 100 µM (inactive) | > 100 µM (inactive) | > 100 µM (inactive) | > 100 µM (inactive) | > 100 µM (inactive) | > 100 µM (inactive) | > 100 µM (inactive) | > 100 µM (inactive) | > 100 µM (inactive) | > 100 µM (inactive) | > 100 µM (inactive) | > 100 µM (inactive) | > 100 µM (inactive) | > 100 µM (inactive) | > 100 µM (inactive)
CC1=NN(C(=O)c2ccccc2O)C(=O)/C1=C/c1ccccc1O | 0.381 µM (active) | 0.0577 µM (active) | 6.4 µM (inactive) | 15.2 µM (inactive) | 20.7 µM (inactive) | 0.977 µM (active) | 0.295 µM (active) | 2.76 µM (inactive) | 0.164 µM (active) | 2.31 µM (inactive) | 0.558 µM (active) | 1.55 µM (inactive) | 0.132 µM (active) | 0.445 µM (active) | 0.114 µM (active) | 0.0968 µM (active) | 3.74 µM (inactive) | 1.54 µM (inactive)
COC(=O)c1ccccc1C1CN=NC12Cc1c(C)cc(C)cc1C2=O (stereo not given) | 45.4 µM (inactive) | > 100 µM (inactive) | > 100 µM (inactive) | > 100 µM (inactive) | > 100 µM (inactive) | > 100 µM (inactive) | > 100 µM (inactive) | > 100 µM (inactive) | > 100 µM (inactive) | > 100 µM (inactive) | > 100 µM (inactive) | > 100 µM (inactive) | > 100 µM (inactive) | > 100 µM (inactive) | > 100 µM (inactive) | 58.2 µM (inactive) | > 100 µM (inactive) | > 100 µM (inactive)

— ChEMBL document CHEMBL1201862, “PubChem BioAssay data set” (2004)
